The results in this text go back to PubChem BioAssay (NCI).

Some test systems named below: UO-31 renal; HCT-116 colon; LOX IMVI melanoma; K-562 leukemia; OVCAR-8 ovarian; CCRF-CEM leukemia; A498 renal; HS 578T breast; NCI/ADR-RES ovarian; MCF7 breast.
Common to all, as to test: NCI-60 cell line screen, 48 h

SMILES strings stand for the structures. “And” between values parts separate entries of the source, which are not always exact repeats. Identical values can stand only once.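 Growth conditions: 96-well plates. Treatment: test compound, 48 hours, 5 concentrations. Analysis: linear interpolation between bracketing concentrations; unreached endpoints set to highest concentration. GI50: concentration for 50% inhibition of growth. TGI marks complete inhibition of growth.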

In the case of `CC(=O)OCC1OC(OC2CC3C(C)(C)C(OC(C)=O)CC[C@]3(C)C3CCC45CC4(CC[C@H]5C(C)CC(O)[C@@H](O)C(C)(C)O)[C@]23C)C(O)C(O)C1O` (stereo not given in full), the GI50 in the assay with UO-31 renal is 18.5 µM; in the assay with LOX IMVI melanoma, 3.34 µM; in the assay with K-562 leukemia it was 3.47 µM; with OVCAR-8 ovarian, 8.43 µM; with CCRF-CEM leukemia, 4.07 µM; in the assay on A498 renal, 19.6 µM. For the same molecule, the TGI in the assay on UO-31 renal was 12.3 µM and 32.5 µM; in the assay on HCT-116 colon it was 13.8 µM and 21.7 µM; with LOX IMVI melanoma, 13 µM and 11.2 µM; in the assay on K-562 leukemia, 13.8 µM and 18.7 µM; in the assay with OVCAR-8 ovarian, 13.9 µM and 22.5 µM; in the assay with CCRF-CEM leukemia, 14.8 µM and 15.4 µM. Besides, in the assay on A498 renal, the TGI was 13.2 µM and 35.6 µM.
`Cc1cc(O)c(C(=O)CC2(O)C(=O)Nc3c(Cl)cc(Cl)cc32)c(=O)o1` (stereo not given): the TGI with UO-31 renal, in the assay on HCT-116 colon, in the assay with K-562 leukemia, in the assay on OVCAR-8 ovarian, in the assay with CCRF-CEM leukemia and in the assay with A498 renal was over 100 µM each time.
`Nc1nc(Nc2ccc3c(c2)CC[C@@H](N2CCCC2)CC3)nn1-c1cc2c(nn1)-c1ccccc1CCC2`: the GI50 in the assay on UO-31 renal is 0.936 µM; with HCT-116 colon, 1.5 µM; in the assay with LOX IMVI melanoma, 1.5 µM; in the assay with HS 578T breast, 1.79 µM; in the assay on CCRF-CEM leukemia it was 0.478 µM; with A498 renal it was 0.0249 µM. The TGI with UO-31 renal was determined as 2.19 µM; with HCT-116 colon it was 3.08 µM; in the assay with LOX IMVI melanoma, 2.92 µM; in the assay on HS 578T breast, 4.86 µM; in the assay on CCRF-CEM leukemia, 2.53 µM; in the assay with A498 renal it was 1.44 µM.
`Cn1nc(-c2ccccc2)c(N=[N+]=[N-])cc1=O`: the TGI in the assay with UO-31 renal, in the assay with HCT-116 colon, in the assay with LOX IMVI melanoma, in the assay with K-562 leukemia, in the assay with OVCAR-8 ovarian and in the assay on CCRF-CEM leukemia was over 100 µM each time. In the assay on A498 renal, this molecule yielded a TGI of over 100 µM.
Turning to `O=C(O)c1c2c(c(C(=O)O)c3ccccc13)-c1ccccc1-2`, the TGI with UO-31 renal, in the assay on HCT-116 colon, in the assay with LOX IMVI melanoma, in the assay with K-562 leukemia, in the assay on OVCAR-8 ovarian and in the assay with CCRF-CEM leukemia was over 100 µM throughout. Besides, the TGI in the assay with A498 renal was over 100 µM.
With `N/N=C(\CC1OC(=O)c2ccccc21)c1ccco1` (stereo not given), the TGI with UO-31 renal, in the assay on HCT-116 colon, in the assay with LOX IMVI melanoma, with K-562 leukemia, in the assay on CCRF-CEM leukemia and in the assay with A498 renal was over 100 µM in each case.
With `COc1ccc(C(=O)C(c2ccc(OC)cc2)C2(O)C(=O)Nc3c(C)cc(Cl)cc32)cc1` (stereo not given), the TGI in the assay on UO-31 renal was over 100 µM; in the assay with HCT-116 colon, over 100 µM; with K-562 leukemia, over 100 µM; in the assay on OVCAR-8 ovarian it was over 100 µM; in the assay with CCRF-CEM leukemia it was 47.7 µM; in the assay with A498 renal, over 100 µM.
For `N#CC1=C(N)N=C(N2CCCCC2)C(C#N)C12Nc1ccccc1S2` (stereo not given), the GI50 is 40.8 µM with UO-31 renal; 20 µM in the assay on NCI/ADR-RES ovarian; 23 µM with HCT-116 colon; 20.7 µM in the assay with LOX IMVI melanoma; over 100 µM in the assay with K-562 leukemia; 44.9 µM in the assay with MCF7 breast. The GI50 in the assay with OVCAR-8 ovarian is 38.3 µM. Further, the TGI with UO-31 renal is over 100 µM; in the assay on NCI/ADR-RES ovarian it was 68.6 µM; in the assay on HCT-116 colon, over 100 µM; with LOX IMVI melanoma it was 51.8 µM; in the assay on K-562 leukemia it was over 100 µM; in the assay on MCF7 breast, over 100 µM. The TGI in the assay on OVCAR-8 ovarian is over 100 µM.
As to `COc1ccc(C2S/C(=C\c3cc(OC)c(OC)c(OC)c3)C(=O)N2NC(=O)Cc2ccccc2)cc1` (stereo not given), the TGI in the assay on UO-31 renal, in the assay with HCT-116 colon, with LOX IMVI melanoma, in the assay on K-562 leukemia, with OVCAR-8 ovarian and in the assay with CCRF-CEM leukemia was over 100 µM throughout.
For the molecule `Cc1cccc(C)c1NC(=O)CCCC(=O)CC(=O)/C=C/c1ccccc1`, the TGI in the assay with UO-31 renal, in the assay with HCT-116 colon, with LOX IMVI melanoma, in the assay on K-562 leukemia, in the assay with OVCAR-8 ovarian and in the assay with CCRF-CEM leukemia was over 100 µM throughout. Also, in the assay with A498 renal, the TGI was over 100 µM.
Turning to `C[C@@H]1O[C@@H](O[C@@H]2[C@@H](O)[C@H](OCCc3ccc(O)c(O)c3)O[C@H](COC(=O)/C=C/c3ccc(O)c(O)c3)[C@H]2O)[C@H](O)[C@H](O)[C@H]1O`, the GI50 in the assay with UO-31 renal was over 100 µM; in the assay with HCT-116 colon it was 36.1 µM; in the assay with LOX IMVI melanoma, 18.3 µM; in the assay with K-562 leukemia it was 36.7 µM; in the assay on HS 578T breast it was over 100 µM. The TGI was over 100 µM with UO-31 renal; 75.3 µM in the assay with HCT-116 colon; 34.4 µM with LOX IMVI melanoma; over 100 µM in the assay on K-562 leukemia; over 100 µM in the assay on HS 578T breast.
In the case of `Cc1nc2c(=O)[nH]c(=O)n(C)c2[nH]c1=O`, the TGI with UO-31 renal, in the assay with HCT-116 colon, in the assay with LOX IMVI melanoma, in the assay with K-562 leukemia, in the assay with OVCAR-8 ovarian and in the assay on A498 renal was over 100 µM in each case.
For the molecule `c1nc2cscc2c2cscc12`, the TGI in the assay on UO-31 renal, in the assay with HCT-116 colon, in the assay with LOX IMVI melanoma, in the assay on K-562 leukemia, with OVCAR-8 ovarian and in the assay on CCRF-CEM leukemia was over 100 µM in each case. This molecule also yielded a TGI in the assay on A498 renal of over 100 µM.
As for `N#CC1=C(N)OC2=C(COc3ccc(F)cc32)C1c1ccc(Cl)cc1` (stereo not given), the GI50 in the assay with UO-31 renal was 48.5 µM; with NCI/ADR-RES ovarian, 19.1 µM; with HCT-116 colon, 36.3 µM; in the assay on LOX IMVI melanoma it was 35.1 µM; in the assay with K-562 leukemia it was 27.3 µM; in the assay on MCF7 breast it was 30.3 µM. Moreover, the GI50 in the assay on OVCAR-8 ovarian was 51.1 µM; in the assay on CCRF-CEM leukemia it was 55.5 µM; in the assay with A498 renal, 22.2 µM. Besides, the TGI is over 100 µM in the assay with UO-31 renal; 48.8 µM in the assay with NCI/ADR-RES ovarian; over 100 µM in the assay with HCT-116 colon; over 100 µM with LOX IMVI melanoma; 82 µM in the assay on K-562 leukemia; over 100 µM in the assay on MCF7 breast. The results for the TGI in the assay with OVCAR-8 ovarian, in the assay with CCRF-CEM leukemia and with A498 renal were over 100 µM, over 100 µM and 67.7 µM, respectively.
